Laboratory results: patent US20220370468A1, “Methods of treating sleep disorders associated with pain” (Astellas Pharma Global Development, Inc., priority 2019, published 2022)

Key:
[1] = tested on: patients with fibromyalgia; test: Phase 2a study: daily fibromyalgia sleep diary (FMSD); format: in vivo, human; conditions: for Degree of being rested when waking up for the day, change from baseline, LS Mean (SE) / Degree of deep sleep, change from baseline, LS Mean (SE) / Degree of having enough sleep during the previous night, change from baseline, LS Mean (SE) / Difficulty getting comfortable, change from baseline, LS Mean (SE) / Difficulty staying asleep, change from baseline, LS Mean (SE) / Difficulty with beginning the day, change from baseline, LS Mean (SE) / Difficulty with falling asleep, change from baseline, LS Mean (SE) / Restlessness of sleep, change from baseline, LS Mean (SE): FAS, 15 mg
Text: In some embodiments, the clinical score is a score for one or more FMSD (fibromyalgia sleep diary) items. The FMSD (Kleinman et al., 2014) is a validated 8-item patient-reported outcome that assesses sleep disturbances specific to patients with fibromyalgia across the domains of falling asleep, staying asleep, and sufficient sleep (Kleinman et al., 2014). Each day upon waking, patients rated their sleep quality over the previous night on an 11-point numerical integer rating scale (NRS). Each item is rated on an 11-point NRS, ranging from 0, which corresponds to “not at all”, to 10, which corresponds to “extremely.” FMSD items include: • difficulty with falling asleep (improvement shown as a decrease in measurement); • restlessness of sleep (improvement shown as a decrease in measurement); • difficulty getting comfortable (improvement shown as a decrease in measurement); • difficulty staying asleep (improvement shown as a decrease in measurement); • degree of deep sleep (improvement shown as an increase in measurement); • degree of being rested when waking up for the day (improvement shown as an increase in measurement); • difficulty with beginning the day (improvement shown as a decrease in measurement); and • degree of having enough sleep during the previous night (improvement shown as an increase in measurement). A phase 2a, randomized, double-blind, placebo-controlled, parallel group study was conducted at 24 sites in the United States to assess the analgesic efficacy and safety of the compound of Formula (I) in patients with fibromyalgia. The study consisted of the following: a screening period of up to 42 days, which included a washout period and a 7-day baseline diary run-in; a 57-day double-blind randomized treatment period with site visits at Days 1, 15, 29, and 57; and a 4-week follow-up period consisting of a clinic visit after 2 weeks and a phone call after 4 weeks. The study was carried out in accordance with the Declaration of Helsinki and approved by the relevant Institutional Review Boards. All participants provided written informed consent prior to the initiation of any study procedures. Male and female patients aged 18 to 80 years were included in the trial if they met the American College of Rheumatology (ACR) 1990 and 2010 fibromyalgia diagnostic criteria at screening (Wolfe et al., 1990; Wolfe et al., 2010b). The core diagnostic criteria for fibromyalgia are defined by the 1990 criteria (Wolfe et al., 1990), and while ACR has published newer criteria, the 1990 version is still commonly utilized in clinical trials. To meet ACR 1990 criteria, patients must have had widespread pain for at least 3 months, defined as the presence of pain on the right and left sides of the body, pain above and below the waist, and pain in the axial skeleton (cervical spine, anterior chest, thoracic spine, or low back) (Wolfe et al., 1990). They must also have had pain in at least 11 of 18 tender point sites on digital palpation performed with an approximate force of 4 kg. To meet the ACR 2010 criteria, patients needed to have a widespread pain index (WPI) score of ≥7 and a symptom severity (SS) scale score ≥5, or a WPI score 3-6 and an SS scale score ≥9 (Wolfe et al., 2010b). Symptoms must have been present at a similar level for at least 3 months and patients must have been free of any other disorder that could have explained the pain. […] Eligible patients were randomized 1:1 using Interactive Response Technology to receive oral Compound of Formula (I) 15 mg (three capsules of 5 mg) or matching placebo capsules, each given once daily in the morning, with or without food, for 8 weeks. Sleep disturbance was assessed as an exploratory endpoint using change from baseline to each respective week (Weeks 1-8) and from baseline to EOT in daily fibromyalgia sleep diary (FMSD) responses (Kleinman et al., 2014). […]

[2] = target: Kca3.1 potassium ion channel (Homo sapiens, UniProt O15554); test: Kca3.1 channel activity (stated mechanism); format: biochemical

- action on Kca3.1 potassium ion channel [2]: opener
Structure (SMILES): Cc1sc2cc(Cl)ccc2c1-c1ccc(N2CCO[C@H](CNC3CCC3)C2)c(C(=O)O)c1 [Compound of Formula (I)]
- Difficulty with falling asleep, Treatment Difference (SE) (Compound of Formula (I) - placebo) ([1]; EOT (LOCF), ANCOVA, 1-sided p 0.008): −0.61 (0.25)
- Restlessness of sleep, Treatment Difference (SE) (Compound of Formula (I) - placebo) ([1]; EOT (LOCF), ANCOVA, 1-sided p 0.009): −0.56 (0.23)
- Difficulty with beginning the day, Treatment Difference (SE) (Compound of Formula (I) - placebo) ([1]; EOT (LOCF), ANCOVA, 1-sided p 0.044): −0.42 (0.25)
- Difficulty getting comfortable, Treatment Difference (SE) (Compound of Formula (I) - placebo) ([1]; EOT (LOCF), ANCOVA, 1-sided p 0.054): −0.35 (0.22)
- Degree of having enough sleep during the previous night, Treatment Difference (SE) (Compound of Formula (I) - placebo) ([1]; EOT (LOCF), ANCOVA, 1-sided p 0.100): 0.32 (0.25)
- Difficulty staying asleep, Treatment Difference (SE) (Compound of Formula (I) - placebo) ([1]; EOT (LOCF), ANCOVA, 1-sided p 0.158): −0.22 (0.22)
- Degree of deep sleep, Treatment Difference (SE) (Compound of Formula (I) - placebo) ([1]; EOT (LOCF), ANCOVA, 1-sided p 0.240): 0.16 (0.22)
- Degree of being rested when waking up for the day, Treatment Difference (SE) (Compound of Formula (I) - placebo) ([1]; EOT (LOCF), ANCOVA, 1-sided p 0.337): 0.10 (0.24)
- Degree of being rested when waking up for the day, change from baseline, LS Mean (SE) ([1]; EOT (LOCF), ANCOVA): 0.78 (0.17)
- Degree of deep sleep, change from baseline, LS Mean (SE) ([1]; EOT (LOCF), ANCOVA): 0.60 (0.16)
- Degree of having enough sleep during the previous night, change from baseline, LS Mean (SE) ([1]; EOT (LOCF), ANCOVA): 1.09 (0.18)
- Difficulty getting comfortable, change from baseline, LS Mean (SE) ([1]; EOT (LOCF), ANCOVA): −1.27 (0.16)
- Difficulty staying asleep, change from baseline, LS Mean (SE) ([1]; EOT (LOCF), ANCOVA): −1.08 (0.16)
- Difficulty with beginning the day, change from baseline, LS Mean (SE) ([1]; EOT (LOCF), ANCOVA): −0.91 (0.18)
- Difficulty with falling asleep, change from baseline, LS Mean (SE) ([1]; EOT (LOCF), ANCOVA): −1.41 (0.18)
- Restlessness of sleep, change from baseline, LS Mean (SE) ([1]; EOT (LOCF), ANCOVA): −1.50 (0.17)
- Difficulty with falling asleep, Treatment Difference (SE) (Compound of Formula (I) - placebo) ([1]; Week 8, MMRM, 1-sided p 0.018): −0.56 (0.26)
- Restlessness of sleep, Treatment Difference (SE) (Compound of Formula (I) - placebo) ([1]; Week 8, MMRM, 1-sided p 0.033): −0.48 (0.26)
- Difficulty with beginning the day, Treatment Difference (SE) (Compound of Formula (I) - placebo) ([1]; Week 8, MMRM, 1-sided p 0.070): −0.39 (0.26)
- Degree of having enough sleep during the previous night, Treatment Difference (SE) (Compound of Formula (I) - placebo) ([1]; Week 8, MMRM, 1-sided p 0.131): 0.30 (0.27)
- Difficulty getting comfortable, Treatment Difference (SE) (Compound of Formula (I) - placebo) ([1]; Week 8, MMRM, 1-sided p 0.167): −0.23 (0.23)
- Difficulty staying asleep, Treatment Difference (SE) (Compound of Formula (I) - placebo) ([1]; Week 8, MMRM, 1-sided p 0.275): −0.14 (0.24)
- Degree of deep sleep, Treatment Difference (SE) (Compound of Formula (I) - placebo) ([1]; Week 8, MMRM, 1-sided p 0.331): 0.11 (0.24)
- Degree of being rested when waking up for the day, Treatment Difference (SE) (Compound of Formula (I) - placebo) ([1]; Week 8, MMRM, 1-sided p 0.432): 0.04 (0.25)
- Degree of being rested when waking up for the day, change from baseline, LS Mean (SE) ([1]; Week 8, MMRM): 0.74 (0.18)
- Degree of deep sleep, change from baseline, LS Mean (SE) ([1]; Week 8, MMRM): 0.55 (0.17)
- Degree of having enough sleep during the previous night, change from baseline, LS Mean (SE) ([1]; Week 8, MMRM): 1.10 (0.19)
- Difficulty getting comfortable, change from baseline, LS Mean (SE) ([1]; Week 8, MMRM): −1.24 (0.17)
- Difficulty staying asleep, change from baseline, LS Mean (SE) ([1]; Week 8, MMRM): −1.09 (0.17)
- Difficulty with beginning the day, change from baseline, LS Mean (SE) ([1]; Week 8, MMRM): −0.89 (0.19)
- Difficulty with falling asleep, change from baseline, LS Mean (SE) ([1]; Week 8, MMRM): −1.46 (0.19)
- Restlessness of sleep, change from baseline, LS Mean (SE) ([1]; Week 8, MMRM): −1.53 (0.19)
- FMSD difficulty with falling asleep versus placebo ([1]; beginning at Week 2, P=0.032): Statistically significant improvements
- FMSD difficulty getting comfortable versus placebo ([1]; beginning at Week 3, P=0.007): Statistically significant improvements
- FMSD difficulty staying asleep versus placebo ([1]; beginning at Week 3, P=0.013): Statistically significant improvements
- FMSD restlessness of sleep versus placebo ([1]; beginning at Week 3, P=0.013): Statistically significant improvements
- FMSD degree of deep sleep versus placebo ([1]; beginning at Week 6, P=0.035): Statistically significant improvements
- FMSD difficulty with beginning the day versus placebo ([1]; beginning at Week 6, P=0.040): Statistically significant improvements
